Assays:
dorsal ITC neurons [1] = experiment: STDP-induced DA-dependent LTD (DA-LTD) in dorsal ITC neurons, amygdala slice whole-cell recordings; type: cell-based, mice; conditions: for induction of LTD at the dorsal ITC by receptor agonist: STDP protocol, agonist in place of DA; for effect on DA-LTD: STDP protocol in presence of DA, antagonists in optimal concentrations selective for each receptor, naive mice
ITC neurons = experiment: Paired recording of unitary IPSCs (uIPSCs) between synaptically coupled ITC neurons
dorsal ITC neurons [2] = experiment: STDP-induced LTD in dorsal ITC in amygdala slices after weak fear conditioning; type: cell-based, mice; conditions: for induction of LTD after weak fear conditioning: wild-type mice, slices after weak fear conditioning, drug applied to slices
Protocol: (§1) Fear conditioning trainings were conducted in context A within sound-attenuating conditions (Panlab, Spain). Tone CS (conditioned stimulus) was delivered with a speaker while electric foot shock US (unconditioned stimulus) was applied through a floor grid attached to a shock generator (Panlab). The chambers were also equipped with infrared webcams connected to a personal computer to store animal behavior. Mice were placed in the context A for 2 minutes of acclimation and were then presented with auditory tone (CS: 3 kHz, 80 dB for 30 sec) that were co-terminated with electric foot shocks (US: 0.4 or 0.8 mA for 0.5 sec). Total 8 CS-US pairs were presented in pseudorandom intertrial intervals (varied from 60 to 120 sec). 24 hours after fear conditioning, mice were placed in context B to assess the recall of fear memory by being re-exposed to CS, but without US for 2 minutes.
(§2) To compare mPSCs without or after STDP, KCl-based and K-gluconate-based internal solutions were used for recording mIPSCs and mEPSCs, respectively. K-gluconate based solution was also used to record EPSCs and IPSCs evoked by interleaved stimulation. Series resistance (10-30 MΩ) was monitored throughout all experiments. mEPSCs were recorded at −70 mV holding potential in the presence of 1 μM tetrodotoxin (TTX) and 100 μM picrotoxin (Tocris, UK) while mIPSCs were measured at −70 mV in the presence of 1 μM TTX, 25 μM NBQX, and 50 μM 2-amino-5-phosphonovaleric acid (APV, Tocris). Miniature PSCs were analyzed with MiniAnalysis (Synaptosoft, Fort Lee, N.J.) or Clampfit 10.1 software (Molecular Devices). For PSC recordings with interleaved stimulation, the holding potential was briefly (˜40 ms) changed from −70 mV to +10 mV to reach the reversal potential of EPSC for isolation of putative IPSCs. For STDP experiments, stimulus intensity was adjusted to elicit EPSPs displaying 25%-30% of the maximum amplitudes. […]

dorsal ITC neurons [3] = experiment: STDP in dorsal ITC neurons of naive slices with or without GABAA receptor blockade; type: cell-based, mice; conditions: +4- and +6-ms interval delays; not in absence of picrotoxin
Protocol: as §2, with “amplitudes. After obtaining stable baseline recording, 80 presynaptic stimuli were delivered at 2 Hz via metal stimulating electrode placed in LA while paired with action potentials induced by injection of depolarizing current to postsynaptic neurons. Quantal contents were estimated by obtaining the inverse square of the coefficient of variation (1/CV^2). […].” for “amplitudes.”

dorsal ITC neurons [4] = experiment: Disynaptic IPSP input-output curves in dorsal ITC of CORT-treated mice; type: cell-based; conditions: vehicle-treated significantly increased
Protocol: To induce PTSD-like memory impairment, corticosterone (CORT, 5 mg/kg) or vehicle (saline, 0.9% NaCl) was intraperitoneally (i.p.) injected immediately after fear conditioning as previously described. The cue-conditioning group underwent weak fear conditioning with the previously-described CS-US pairing paradigm in context A and was tested for fear recall toward the cue in context B at the next day.
To obtain mechanistic insights into the LTD impairment, we constructed the input-output curves of evoked disynaptic IPSPs. […] Thus, the LTD deficit in CORT-treated mice appears to result from the impaired augmentation of inhibitory inputs to the dorsal ITC neurons.

[5] = system: mice that underwent weak fear conditioning; experiment: Corticosterone-induced PTSD-like memory impairment after weak fear conditioning (freezing); type: in vivo; conditions: CORT 5 mg/kg i.p.
Protocol: as §1, with “minutes. […]” for “minutes.”
To assess contextual fear memory from cue conditioned animals, the mice were placed again in context A 2 hours after termination of the first recall test and then duration of freezing was measured for 2 minutes without presentation of the auditory cue. The mice were placed in context B 2 hours after termination of the first recall test and the freezing time during presentation of the auditory cue was measured for 2 minutes.

dorsal ITC neurons [6] = system: dorsal ITC neurons
D4R at the dorsal ITC = biological target: T1, D4R at the dorsal ITC (Mus musculus, UniProt P51436); experiment: Weak fear conditioning after bilateral drug infusion into the dorsal ITC (freezing); type: in vivo, mice; conditions: 500 nM, 0.5 μl bilaterally into dorsal ITC 20 minutes before fear conditioning; vs vehicle
T1 construct: endogenous in cells; host or cells: neurons of the mouse brain in vivo (dorsal ITC of the amygdala); mice from Jackson Laboratory
T1 sequence (P51436 1-387): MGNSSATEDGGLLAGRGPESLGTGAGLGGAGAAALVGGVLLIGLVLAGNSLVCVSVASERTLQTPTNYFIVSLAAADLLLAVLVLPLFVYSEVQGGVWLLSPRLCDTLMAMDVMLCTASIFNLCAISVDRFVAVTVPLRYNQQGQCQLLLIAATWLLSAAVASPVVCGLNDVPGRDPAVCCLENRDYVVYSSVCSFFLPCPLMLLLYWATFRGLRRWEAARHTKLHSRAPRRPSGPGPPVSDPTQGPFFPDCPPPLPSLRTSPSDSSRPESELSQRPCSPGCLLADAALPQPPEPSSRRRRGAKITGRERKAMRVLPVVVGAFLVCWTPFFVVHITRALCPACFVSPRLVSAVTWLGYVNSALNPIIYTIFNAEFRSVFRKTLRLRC
Protocol: Guide cannulae were implanted bilaterally (26 gauge, Plastics One, Roanoke, Va.) aimed into the dorsal ITC areas in the coordinates, AP−1.4 mm, ML±3.2 mm, DV−4.2 mm from the bregma, and were fixed in the skull with dental cement. The cannulae remained capped with internal dummy cannulae (33 gauges, Plastics One) after surgery. Animals were individually housed and allowed to recover at least for 1 week after surgery. The mice bilaterally received 0.5 μl of either L-745870 or vehicle through the injection cannula (33 gauge, Plastics One) connected to a 10-μl Hamilton syringe for 5 minutes at a rate of 0.1 μl/min using microinfusion pump (Harvard Apparatus, Holliston, Mass.) 20 minutes before fear conditioning. L-745870 was dissolved to 500 nM in 0.9% saline just before the infusion. Mice were kept with injector cannulae for additional 5 minutes after the end of infusion and then were subjected to fear conditioning. […] The subject mice were transcardially perfused right after the last behavioral tests and analyzed for the injection loci. […]
If DA-LTD at the dorsal ITC is a synaptic mechanism that regulates neural circuits conveying fear memory, manipulation of D4R activity or synaptic plasticity at the dorsal ITC should affect fear memory. […] We injected either vehicle or L-745870 bilaterally into the dorsal ITC areas and then assessed acquisition and expression of fear memory (FIG. 5A).

**Q.** For `Cc1cccc(C(=O)NCN2CCN(c3ccccc3C#N)CC2)c1` [PD-168077, N-([4-(2-cyanophenyl)piperazine-1-yl]methyl)-3-methylbenzamide], which “induction of LTD at the dorsal ITC by receptor agonist” value (from here on “induction of LTD at the dorsal ITC”) (dorsal ITC neurons [1]) is on record?
**A.** allowed for the induction of LTD

**Q.** And the “amplitude of uIPSCs when LTD was induced” value (ITC neurons; current injection to postsynaptic ITC neurons while stimulating LA in presence of PD-168077)?
**A.** markedly increased

**Q.** How did the “effect on DA-LTD” value (dorsal ITC neurons [1]) turn out when `OC1(c2ccc(Cl)cc2)CCN(Cc2c[nH]c3ccccc23)CC1` [L-741626] was run?
**A.** did not affect DA-LTD

**Q.** How did the “induction of LTD at the dorsal ITC” value (dorsal ITC neurons [1]) turn out when `CCCN1CCO[C@@H]2c3cc(O)ccc3OC[C@H]21` [PD-128907] was run?
**A.** did not

**Q.** What does the source list for `CC#C[C@]1(O)CC[C@H]2[C@@H]3CCC4=CC(=O)CCC4=C3[C@@H](c3ccc(N(C)C)cc3)C[C@@]21C` [RU38486]?
**A.** induction of LTD after weak fear conditioning (dorsal ITC neurons [2]): blocked; effect on DA-LTD (dorsal ITC neurons [1]): blocked

**Q.** With picrotoxin as the compound, how does the “synaptic plasticity by STDP in presence of GABAA receptor antagonist” value (dorsal ITC neurons [3]) read?
**A.** LTP

**Q.** Which results are given for `Nc1nc2c(ncn2[C@@H]2O[C@H](COP(=O)(O)OP(O)(O)=S)[C@@H](O)[C@H]2O)c(=O)[nH]1` [GDPβS]?
**A.** LTD-induced increment of uIPSC amplitude, infused into postsynaptic ITC neurons (ITC neurons; GDPβS 0.5 mM in internal solution, postsynaptic neuron): not; LTD-induced increment of uIPSC amplitude, infused into presynaptic ITC neurons (ITC neurons; GDPβS 0.5 mM in internal solution, presynaptic neuron): blocked

**Q.** With `Oc1cc2c(cc1O)C(c1ccccc1)CNCC2` (stereo not shown) [SKF-38393] as the compound, how does the “induction of LTD at the dorsal ITC” value (dorsal ITC neurons [1]) read?
**A.** did not

**Q.** Which results are given for `C[C@]12C[C@H](O)[C@H]3[C@@H](CCC4=CC(=O)CC[C@@]43C)[C@@H]1CC[C@@H]2C(=O)CO` [CORT, corticosterone]?
**A.** disynaptic IPSPs after weak fear conditioning (dorsal ITC neurons [4]): not altered; induction of LTD in dorsal ITC of CORT-treated mice (dorsal ITC neurons [2]; CORT 5 mg/kg i.p. after conditioning, regardless of fear conditioning): LTD could not be triggered; freezing to the context after cue conditioning only [5]: increased freezing levels; freezing to the conditioned cue 24 hr after weak fear conditioning ([5]; vs vehicle-injected, cue or context pairing): higher freezing levels

**Q.** Which results are given for `NCCc1ccc(O)c(O)c1` [DA, Dopamine]?
**A.** changes in resting membrane potentials (RMPs) and excitability (dorsal ITC neurons [6]; DA 30 mM, before and after application): negligible changes; synaptic transmission on bath application alone (dorsal ITC neurons [6]; bath application of DA alone, no STDP): did not alter synaptic transmission; induction of LTD by the STDP protocol in the presence of DA (dorsal ITC neurons [1]; DA 30 mM): LTD was readily induced

**Q.** For `COc1ccccc1N1CCN(CCCCNC(=O)c2ccc(-c3ccc(C(C)=O)cc3)cc2)CC1` [GR-103691], which “effect on DA-LTD” value (dorsal ITC neurons [1]) is on record?
**A.** did not affect DA-LTD

**Q.** Which results are given for `Clc1ccc(N2CCN(Cc3c[nH]c4ncccc34)CC2)cc1` [L-745870]?
**A.** freezing at 24 hr after weak fear conditioning (D4R at the dorsal ITC): significantly higher levels of freezing; freezing levels during acquisition (D4R at the dorsal ITC): comparable freezing levels; induction of LTD after weak fear conditioning (dorsal ITC neurons [2]): interfered with the induction of LTD; effect on DA-LTD (dorsal ITC neurons [1]): abolished DA-LTD
